This note sets out measurements from PMC6023200, “High content, high-throughput screening for small molecule inducers of NF-κB translocation” (PLoS ONE, 2018).

Read-outs that look alike come from different tables or passages of the source. Some results are limits rather than exact numbers.

Series [1] has as its system NF-κB nuclear translocation in HUVECs. The series is described as follows: NF-κB nuclear translocation assay (high content imaging, p65 NUC/CYT). It counts as cell-based, Human. The settings on record: for EC50: Homo sapiens, HUVEC; for NF-κB nuclear translocation in response to different inducers vs negative control (1% DMSO): HUVECs stimulated 30 min, 100 ng/mL LPS, 10 μM PMA, 10 μM prostratin, 10 μM calcimycin. How it is done: HUVEC cells were seeded at 2500 cells/well in 384-well plates in EBM^TM-2 Basal Medium plus 2% FBS overnight at 37°C in a humidified 5% CO2 incubator. Compounds (columns 3–22) and DMSO (columns 1, 2, 23 and 24) were added to cells using a JANUS Automated Liquid Handling Workstation (Perkin Elmer). […] Plates were incubated at 37°C for 30 min in a humidified 5% CO2 incubator following addition of compounds and controls.
All washing and immunofluorescence staining steps were performed using an EL406 Automated Washer Dispenser (Biotek). Briefly, cells were fixed with 4% paraformaldehyde at RT for 15 min. Cells were washed and incubated at RT for 30 min in 0.05% Triton X-100, 0.25% IgG-free BSA, 0.25% normal goat serum in Tris-buffered saline. Cells were stained with the p65 Mouse Monoclonal Primary Antibody (Santa Cruz, sc-8008) at a final concentration of 1 μg/mL in TBS, 0.05% Triton X-100,.25% IgG-free BSA and incubated overnight at 4°C. Cells were washed and stained with the Alexa Fluor 488 Goat anti-Mouse IgG (H+L) cross-adsorbed secondary antibody at a final concentration of 4 μg/mL in TBS, 0.05% TritonX-100, 0.25% IgG-free BSA for 1 hr at RT in the dark. Cells were washed and 1 μg/mL of DAPI added. Plates were sealed and imaged with an ImageXpress Micro XLS High Content Screening System (Molecular Devices) using FITC and DAPI channels at 20X magnification. Nine fields were captured for each well.
Images were analyzed using the MetaXpress software (Molecular Devices) by creating a custom analysis program in the Custom Module Editor. Briefly, DAPI was used to identify the nucleus of the cell and a nuclear mask created. A secondary mask was created by enlarging the nucleus mask to identify the whole cell. The whole cell mask was then overlaid on the nucleus mask to identify the cytoplasm. The average p65 (NF-κB) pixel intensities in both the nucleus and cytoplasm were quantified and a value assigned to each. A translocation value was calculated by determining the ratio of the average nuclei intensity to the average cytoplasmic intensity of p65 (NUC/CYT). For assay development, the Kruskal-Wallis non parametric test was used to compare the medians of the different groups after correcting for multiple comparison with Dunn’s multiple comparison test using GraphPad Prism 7.04 software. For assay validation, the mean (μ), standard deviation (SD) and coefficient of variation (CV) for nuclear translocation were calculated for the maximum (TNF-α) and minimum (DMSO) activation control wells, maximum and minimum activation plates as well as CVs for 320 test wells. The Z’ (measure of spread between maximum and minimum control signals) was calculated for each plate using the formula: Z^′=1−3(SDMax+SDMin)/|μMax−μMin|, where max is average maximum signal and min is average minimum signal. The EC50 was defined as the concentration that gave half the maximal response.

Series [2] can be described thus: HepG2 cytotoxicity assay (CellTiter-Glo). To be noted: human, HepG2 cells.
Description: (§1) Cells were seeded in 384-well plates at 1800 cells per well and incubated in a humidified incubator at 37°C, 5% CO2. Compounds were solubilized in 100% DMSO and assayed using a 10-point three-fold serial dilution. Compounds were added 24 hours post cell seeding to a final assay concentration of 1% DMSO and highest compound concentration of 100 μM. CellTiter-Glo® reagent (Promega) was added to 384-well plates after a 72-hour incubation period. Relative luminescent units (RLU) were measured using a Synergy 4 plate reader (Biotek). Raw data were normalized using the average RLU value from negative control (1% DMSO) and expressed as % growth. Growth inhibition curves were fitted using the Levenberg–Marquardt algorithm. The IC50 was defined as the compound concentration that produced 50% of the growth inhibitory response.
In the next series the test system is HepG2 human cell line. The series is described as follows: HepG2 cytotoxicity assay (CellTiter-Glo). To be noted: HepG2 IC50 / HUVEC EC50. (In general: Cellular ATP, detected with luciferase, serves as a proxy for viable cell number.)
The nature of the next series: in vitro. The settings on record: human.
Setting [3] is: 0.5 h, NF-κB nuclear translocation, 10-point 3-fold dose response from 100 μM, 30 min, mean ± SD of three independent experiments (* N = 2), unit inferred, μM, read-out: EC50 = Activity in HUVECs.
The mark [4] stands for this setting: HUVECs, representative curve of three experiments, 4-parameter fit, dose response from 100μM, unit inferred, read-out: EC50 (Fig 8 dose response curve).

Description for HepG2 human cell line: as §1
Description for in vitro: as §1

As for `N#Cc1c(Cl)nc(N2CCOCC2)c(Cl)c1Cl` [IDR-0112566], the EC50 (as a rule, the concentration needed to bring the measured effect to its halfway point) in series [1] (setting [3]) amounted to 3.8 ± 1.4 µM; in series [1] (setting [4]) it was 2.1 µM. Moreover, in series [2], the IC50 (usually the midpoint of a concentration-inhibition curve) at 72 h was found to be 28 ± 0.7 µM. Besides, the “selectivity index (SI) = IC50/EC50” value in the series with HepG2 human cell line was found to be 7.4.

As to `CC(=NNc1nc(Cl)c(C#N)c(Cl)c1Cl)c1ccccn1` [IDR-0112703], the concentration giving a half-maximal response (EC50) in series [1] (setting [3]) was determined as 6.3 ± 6 µM. The molecule also came in with an IC50 at 72 h in series [2] of 13 ± 5 µM. For the same molecule, the “selectivity index (SI) = IC50/EC50” value in the series with HepG2 human cell line was found to be 2.1.

As to `Cc1cc(C)c2c(N)c(C(=O)c3ccc(Br)cc3)sc2n1` [IDR-0112706], the EC50 in series [1] (setting [3]) stood at 13 ± 4.5 µM. For the same molecule, the IC50 at 72 h in series [2] turned out to be 27 ± 3.5 µM. In the series on HepG2 human cell line, the “selectivity index (SI) = IC50/EC50” value stood at 2.1.

Regarding `Nc1ccc2c(c1)Cc1cc([N+](=O)[O-])ccc1-2` [IDR-0113345], the half-maximal effective concentration (EC50) in series [1] (setting [3]) is 8.6 ± 8.9 µM. The midpoint of inhibition in “in vitro”, the IC50, lay at 54 ± 5 µM. Besides, in the series with HepG2 human cell line, the “selectivity index (SI) = IC50/EC50” value turned out to be 6.3.

On to `COC(=O)C1=C(C)OC(N)=C(C#N)C1c1ccc(Cl)c(Cl)c1` (centres unmarked) [IDR-0122120], for which the EC50 in series [1] (setting [3]) came to 6.6 ± 8.1 µM. This molecule had an IC50 at 72 h in series [2] of 40 ± 5 µM. For the same molecule, the “selectivity index (SI) = IC50/EC50” value in the series with HepG2 human cell line is 6.1.

As to `O=c1oc2ccccc2c2nn(Cc3ccccc3)nc12` [IDR-0131600], in series [1] (setting [3]), the EC50 was 17 ± 3.7 µM. For the same molecule, the IC50 at 72 h in series [2] worked out at 32 ± 0.7 µM. Moreover, the “selectivity index (SI) = IC50/EC50” value in the series with HepG2 human cell line was determined as 1.9.

Turning to `O=C1NC(=S)SC1=Cc1ccc(O)cc1O` [IDR-0133275], the concentration for a half-maximal effect (EC50) in series [1] (setting [3]) came out at 18 ± 1.1 µM. Also, in series [2], the half-inhibitory concentration (IC50) at 72 h was over 100 µM. Further, in the series on HepG2 human cell line, the “selectivity index (SI) = IC50/EC50” value was over 5.5.

Take `Cc1cc(OCCCNCCO)cc(C)c1Cl` [IDR-0137368]: the half-maximal effective concentration (EC50) in series [1] (setting [3]) amounted to 17 ± 14 µM. The midpoint of inhibition in series [2], the IC50 at 72 h, lay at 19 ± 4.9 µM. The “selectivity index (SI) = IC50/EC50” value in the series with HepG2 human cell line came out at 1.1.

As to `CCCCNCCCCOc1ccc2ccccc2c1` [IDR-0137875], in series [1] (setting [3]), the EC50 was determined as 15 ± 3 µM. In series [2], this molecule registered an IC50 at 72 h of 16 ± 0.71 µM. Also, the “selectivity index (SI) = IC50/EC50” value in the series with HepG2 human cell line was found to be 1.1.

Consider `Oc1ccccc1/N=C/c1c(O)c(Br)cc2oc3c(c12)CCCC3` [IDR-0139144], for which, in series [1] (setting [3]), the half-maximal effective concentration (EC50) amounted to 12 ± 10 µM. In series [2], 18 ± 4.2 µM corresponded to half-maximal inhibition (IC50 at 72 h). Besides, the “selectivity index (SI) = IC50/EC50” value in the series with HepG2 human cell line was found to be 1.5.

With `O=[N+]([O-])c1ccc(-c2nc(Cl)oc2-c2ccc([N+](=O)[O-])cc2)cc1` [IDR-0515158], the EC50 was 2.6 ± 0.53 µM in series [1] (0.5 h, read-out: EC50 = Activity in HUVECs) and 2.2 µM in series [1] (read-out: EC50 (Fig 8 dose response curve)). Inhibition in series [2] was half-maximal at 86 ± 17 µM (IC50 at 72 h). Moreover, in the series on HepG2 human cell line, the “selectivity index (SI) = IC50/EC50” value was found to be 33.

With `Cc1nn(-c2ccccc2)c2c1C(c1ccc(Cl)c(Cl)c1)C(C#N)=C(N)O2` (centres unmarked) [IDR-0516961], in series [1] (setting [3]), the EC50 is 25 ± 17 µM. Further, in series [2], the concentration for half-maximal inhibition (IC50) at 72 h was found to be 46 ± 18 µM. Besides, the “selectivity index (SI) = IC50/EC50” value with HepG2 human cell line is 1.8.

Regarding `CCOC(=O)C(Cc1ccccc1)NC(=O)c1ccccc1` (centres unmarked) [IDR-0517069], the EC50 worked out at 10 ± 1.6 µM in series [1] (setting [3]) and 8.1 µM in series [1] (setting [4]). The same molecule yielded an IC50 at 72 h in series [2] of over 100 µM. Further, the “selectivity index (SI) = IC50/EC50” value in the series with HepG2 human cell line is on record as over 10.

`O=C1C(=Cc2ccc(-c3ccc(Cl)cc3)o2)SC(=S)N1Cc1ccco1` [IDR-0518296]: the concentration giving a half-maximal response (EC50) in series [1] (setting [3]) came out at 2.4 ± 1.4 µM. The molecule also returned an IC50 at 72 h in series [2] of 17 ± 12 µM. In the series with HepG2 human cell line, the “selectivity index (SI) = IC50/EC50” value came to 7.1.

For `O=C(/C=C1\C=CS(=O)(=O)C1)c1ccccc1` [IDR-0520796], in series [1] (setting [3]), the EC50 turned out to be 5 ± 5.6 µM. Moreover, in series [2], the concentration for half-maximal inhibition (IC50) at 72 h was determined as 6.6 ± 1.6 µM. Besides, the “selectivity index (SI) = IC50/EC50” value in the series on HepG2 human cell line amounted to 1.3.

Consider `CN(C)c1ccc(/C=C2\SC(=S)N(N)C2=O)cc1` [IDR-0605186], for which the half-maximal effective concentration (EC50) in series [1] (setting [3]) was found to be 15 ± 5.9 µM. The molecule also had an IC50 at 72 h in series [2] of over 50 µM. In addition, the “selectivity index (SI) = IC50/EC50” value in the series on HepG2 human cell line is on record as over 3.3.

Turning to `CCOc1cc(C=C(C#N)c2nc(-c3ccc(OC)cc3)cs2)ccc1O` [IDR-0605187], the EC50 in series [1] (setting [3]) was 5.9 ± 3.4 µM; in series [1] (setting [4]), 3.1 µM. This molecule yielded a half-maximal inhibitory concentration (IC50) at 72 h in series [2] of 51 ± 31 µM. Besides, the “selectivity index (SI) = IC50/EC50” value in the series on HepG2 human cell line was 8.6.

Turning to `COc1ccc(Br)cc1/C=C(\C#N)c1nc2ccc(C)cc2[nH]1` [IDR-0605188], the EC50 in series [1] (setting [3]) came to 4.7 ± 3.8 µM. Also, in series [2], half-maximal inhibition (IC50 at 72 h) was put at 17 ± 13 µM. For the same molecule, the “selectivity index (SI) = IC50/EC50” value in the series with HepG2 human cell line amounted to 3.6.

As for `CCCCCCCCCCCCCC(=O)O[C@@H]1[C@@H](C)[C@@]2(O)[C@@H](C=C(CO)C[C@]3(O)C(=O)C(C)=C[C@@H]23)[C@@H]2C(C)(C)[C@]12OC(C)=O` [PMA, phorbol myristate acetate, reference compound], the “NF-κB nuclear translocation in response to different inducers vs negative control (1% DMSO)” value in series [1] (10 ng/mL TNF-α) is “no difference”.

`CNc1ccc2oc(C[C@H]3O[C@@]4(CC[C@H]3C)O[C@H]([C@H](C)C(=O)c3ccc[nH]3)[C@H](C)C[C@H]4C)nc2c1C(=O)O` [calcimycin, reference compound]: the “NF-κB nuclear translocation in response to different inducers vs negative control (1% DMSO)” value in series [1] (10 ng/mL TNF-α) is “no difference”.

Consider `CC(=O)O[C@@]12C[C@@H](C)[C@@]3(O)[C@@H](C=C(CO)C[C@]4(O)C(=O)C(C)=C[C@@H]34)[C@@H]1C2(C)C` [prostratin, reference compound], for which, in series [1] (10 ng/mL TNF-α), the “NF-κB nuclear translocation in response to different inducers vs negative control (1% DMSO)” value is listed as “no difference”.

Take TNF-α: the “NF-κB nuclear translocation in response to different inducers vs negative control (1% DMSO)” value in series [1] (10 ng/mL TNF-α) is recorded as “most robust NF-κB nuclear translocation”. Besides, the “time of maximum NF-κB activation post stimulation” value in series [1] (HUVECs, 10 ng/mL TNF-α, fixed at 15, 30, 45 and 60 min) is listed as 30 min. For the same molecule, in series [1] (HUVECs, 10-point 3-fold dilutions from 100 ng/mL, 30 min, across three independent experiments), the “EC50 of NF-κB nuclear translocation” value fell in the range of 0.3 to 0.6 ng/mL.

For “lipopolysaccharide [LPS, reference compound]”, the “NF-κB nuclear translocation in response to different inducers vs negative control (1% DMSO)” value in series [1] (10 ng/mL TNF-α) is reported as “no difference”.
